Literature values as cited in paper PMC5766731 (Clinical Pharmacokinetics, 2017).

Conditions: cited from earlier work

## O=C(O)CNC(=O)c1ncc(-c2cccc(Cl)c2)cc1O [vadadustat]
  pharmacokinetics in CKD patients (stages 3 and 4): not found to be significantly altered
Healthy subjects
  renal CL mechanisms, share of the radioactive dose: approximately 59%
